Measured values taken from patent US20210238170A1, “5,5-Difluoro- and 5-Fluoro-5-Methyl-C-Glycoside Derivatives Useful As Dual SGLT1 / SGLT2 Modulators” (Janssen Pharmaceutica NV, priority 2018, published 2021).
Where two headings read alike, the source gives them in different places.

Key:
human SGLT1 = target: T1, human SGLT1 (Homo sapiens, UniProt P13866); assay: SGLT1 in vitro assay: Na-dependent 14C-AMG uptake in CHO-K1 cells stably expressing human SGLT1; type: cell-based; details: for inhibition at 0.3 µM: read-out: SGLT1 % Inh @ 0.3 μM
T1 construct: expressed in transfected cells
T1 sequence (P13866 1-664): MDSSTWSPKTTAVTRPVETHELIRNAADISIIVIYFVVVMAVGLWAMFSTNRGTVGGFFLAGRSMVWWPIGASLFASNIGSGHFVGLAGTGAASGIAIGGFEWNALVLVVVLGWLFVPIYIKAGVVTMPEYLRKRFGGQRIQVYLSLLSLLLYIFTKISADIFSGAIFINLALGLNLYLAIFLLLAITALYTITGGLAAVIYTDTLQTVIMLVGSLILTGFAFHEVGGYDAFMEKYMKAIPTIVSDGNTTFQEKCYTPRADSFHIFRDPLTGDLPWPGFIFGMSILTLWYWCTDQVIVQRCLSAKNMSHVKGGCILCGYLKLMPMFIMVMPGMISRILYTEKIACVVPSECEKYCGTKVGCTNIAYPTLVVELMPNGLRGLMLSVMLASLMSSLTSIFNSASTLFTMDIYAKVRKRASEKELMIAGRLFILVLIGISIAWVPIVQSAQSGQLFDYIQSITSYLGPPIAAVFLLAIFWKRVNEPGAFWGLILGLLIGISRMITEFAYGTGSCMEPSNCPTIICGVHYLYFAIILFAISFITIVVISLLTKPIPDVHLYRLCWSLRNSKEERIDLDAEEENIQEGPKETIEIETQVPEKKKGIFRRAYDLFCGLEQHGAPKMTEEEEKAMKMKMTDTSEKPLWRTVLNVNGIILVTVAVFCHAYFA
Outline: (§1)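 Sodium-dependent uptake of 14C-α-methyl-glucopyranoside ([…]) over 2 h at 37°C was counted by scintillation in stable human SGLT2- or SGLT1-CHO-K1 lines pretreated with 10 mM Na-butyrate. Compounds at 0.001–10 μM were preincubated for 10 min in pH 7.4 buffer with 137 mM NaCl; output is %-inhibition or IC50.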

human SGLT2 = target: T2, human SGLT2 (Homo sapiens, UniProt P31639); assay: SGLT2 in vitro assay: Na-dependent 14C-AMG uptake in CHO-K1 cells stably expressing human SGLT2; type: cell-based; details: for inhibition at 0.3 µM: read-out: SGLT2 % Inh @ 0.3 μM
T2 construct: expressed in transfected cells
T2 sequence (P31639 1-672): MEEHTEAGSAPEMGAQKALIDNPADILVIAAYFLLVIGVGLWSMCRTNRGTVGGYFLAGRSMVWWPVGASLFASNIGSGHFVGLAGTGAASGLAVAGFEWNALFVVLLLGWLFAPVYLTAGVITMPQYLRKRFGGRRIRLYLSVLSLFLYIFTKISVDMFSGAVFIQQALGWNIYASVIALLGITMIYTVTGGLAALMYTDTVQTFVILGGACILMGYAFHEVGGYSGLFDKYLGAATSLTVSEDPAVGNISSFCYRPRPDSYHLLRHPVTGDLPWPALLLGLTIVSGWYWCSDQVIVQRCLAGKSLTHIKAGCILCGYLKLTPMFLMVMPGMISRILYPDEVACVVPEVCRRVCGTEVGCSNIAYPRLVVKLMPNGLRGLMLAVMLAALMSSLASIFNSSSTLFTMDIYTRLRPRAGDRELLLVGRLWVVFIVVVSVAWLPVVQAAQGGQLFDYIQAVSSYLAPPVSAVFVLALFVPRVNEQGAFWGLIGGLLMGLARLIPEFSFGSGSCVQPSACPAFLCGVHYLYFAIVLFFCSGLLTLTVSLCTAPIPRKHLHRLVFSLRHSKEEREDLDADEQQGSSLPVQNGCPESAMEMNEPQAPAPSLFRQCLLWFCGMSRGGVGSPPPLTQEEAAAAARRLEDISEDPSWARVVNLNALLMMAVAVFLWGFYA
Outline: as §1

[1] = @ 0.3 μM, CHO-K1 cells stably expressing human SGLT1, 14C-AMG uptake
[2] = CHO-K1 cells stably expressing human SGLT1, 14C-AMG uptake, compounds of formula (I) where R0 is fluoro
[3] = @ 0.3 μM, CHO-K1 cells stably expressing human SGLT2, 14C-AMG uptake
[4] = CHO-K1 cells stably expressing human SGLT2, 14C-AMG uptake, compounds of formula (I) where R0 is fluoro
[5] = 0.3 μM, CHO-K1 cells expressing human SGLT1
[6] = 0.3 μM, CHO-K1 cells expressing human SGLT2

Row | SMILES | inhibition at 0.3 µM (human SGLT1; [1]) [%] | IC50 (human SGLT1; [2]) [nM] | inhibition at 0.3 µM (human SGLT2; [3]) [%] | IC50 (human SGLT2; [4]) [nM] | SGLT1 % Inh @ 0.3 μM (human SGLT1; [1]) [%] | SGLT2 % Inh @ 0.3 μM (human SGLT2; [3]) [%] | also measured
1 | Cc1cnc(C(=O)N2CCc3sc(Cc4cc([C@@H]5O[C@H](CO)C(F)(F)[C@H](O)[C@H]5O)c(O)cc4C)cc3C2)s1 [Compound 83] | 43.3 | 449 | 85.4 | 9.7 |  |  | 
2 | C[C@]1(F)[C@H](O)[C@@H](O)[C@H](c2cc3c(c(Cc4ccc5c(c4)OCCO5)c2)OCC3)O[C@@H]1CO [Compound 19] |  |  |  |  |  |  | SGLT1 % Inh @ 0.3 μM (human SGLT1; [5]): 9.3%; SGLT2 % Inh @ 0.3 μM (human SGLT2; [6]): 73.5%
3 | Cc1ccc([C@@H]2O[C@H](CO)C(F)(F)[C@H](O)[C@H]2O)cc1Cc1cc2c(s1)CCN(C(=O)C1CCCC1)C2 [Compound 84] |  |  |  |  | 28.5 | 54.4 | 
4 | Cc1c(Cc2cc3ccccc3s2)cc([C@@H]2O[C@H](CO)C(F)(F)[C@H](O)[C@H]2O)c(O)c1C [Compound 60, (2S,3R,4R,6R)-2-(5-(benzo[b]thiophen-2-ylmethyl)-2-hydroxy-3,4-dimethylphenyl)-5,5-difluoro-6-(hydroxymethyl)tetrahydro-2H-pyran-3,4-diol] | 83.4 | 88 | 91.1 | 12.2 |  |  | 
5 | Cc1cc(O)c([C@@H]2O[C@H](CO)C(F)(F)[C@H](O)[C@H]2O)cc1Cc1ccc(-c2cccc(F)n2)s1 [Compound 70] | 61.2 | 120 | 76.2 | 2.7 |  |  | 
6 | COc1c([C@@H]2O[C@H](CO)C(F)(F)[C@H](O)[C@H]2O)cc(Cc2ccc3c(c2)OCCO3)c2c1CCO2 [Compound 76] | 44.3 | 302 | 84.4 | 5 |  |  | 
7 | COc1cc(C)c(Cc2ccc(OCF)cc2)cc1[C@@H]1O[C@H](CO)[C@@](C)(F)[C@H](O)[C@H]1O [Compound 24] |  |  |  |  |  |  | SGLT1 % Inh @ 0.3 μM (human SGLT1; [5]): 29.6%; SGLT2 % Inh @ 0.3 μM (human SGLT2; [6]): 77.1%
8 | CCOc1ccc(Cc2cc([C@@H]3O[C@H](CO)C(F)(F)[C@H](O)[C@H]3O)c(O)cc2C)cc1 [Compound 47, (2S,3R,4R,6R)-2-(5-(4-ethoxybenzyl)-2-hydroxy-4-methylphenyl)-5,5-difluoro-6-(hydroxymethyl)tetrahydro-2H-pyran-3,4-diol] | 47.9 | 250 | 61.2 | 1.8 |  |  | 
9 | COCCOc1cc(C)c(Cc2cc3ccccc3s2)cc1[C@@H]1O[C@H](CO)C(F)(F)[C@H](O)[C@H]1O [Compound 39] |  |  |  |  | 31.8 | 76.4 | 
10 | COc1cc(OC)c([C@@H]2O[C@H](CO)[C@@](C)(F)[C@H](O)[C@H]2O)cc1Cc1ccc2c(c1)OCCO2 [Compound 9, (2S,3R,4R,5S,6R)-2-[5-(2,3-dihydro-1,4-benzodioxin-6-ylmethyl)-2,4-dimethoxy-phenyl]-5-fluoro-6-(hydroxymethyl)-5-methyl-tetrahydropyran-3,4-diol] |  |  |  |  |  |  | inhibition at 0.3 µM (human SGLT1; [5]): 25.3%; inhibition at 0.3 µM (human SGLT2; [6]): 58.7%
11 | Cc1cc(O)c([C@@H]2O[C@H](CO)[C@@](C)(F)[C@H](O)[C@H]2O)cc1Cc1cc2ccccc2s1 [Compound 1] |  |  |  |  |  |  | inhibition at 0.3 µM (human SGLT1; [5]): 57.6%; IC50 (human SGLT1; CHO-K1 cells expressing human SGLT1, 14C-AMG uptake): 198 nM; IC50 (human SGLT2; CHO-K1 cells expressing human SGLT2, 14C-AMG uptake): 19.6 nM
12 | Cc1cc(OCC#N)c([C@@H]2O[C@H](CO)C(F)(F)[C@H](O)[C@H]2O)cc1Cc1cc2ccccc2s1 [Compound 40, 2-[4-(benzothiophen-2-ylmethyl)-2-[(2S,3R,4R,6R)-5,5-difluoro-3,4-dihydroxy-6-(hydroxymethyl)tetrahydropyran-2-yl]-5-methyl-phenoxy]acetonitrile] | 54 | 176 | 85.4 | 3.5 |  |  | 

More lines, main results first:

Row | inhibition at 0.3 µM (human SGLT1; [1]) [%] | IC50 (human SGLT1; [2]) [nM] | inhibition at 0.3 µM (human SGLT2; [3]) [%] | IC50 (human SGLT2; [4]) [nM] | SGLT1 % Inh @ 0.3 μM (human SGLT1; [1]) [%] | SGLT2 % Inh @ 0.3 μM (human SGLT2; [3]) [%] | SMILES | also measured
13 | 65.2 | 122 | 85.5 | 4.5 |  |  | OC[C@H]1O[C@@H](c2cc(Cc3ccc(OCF)cc3)c(Cl)cc2O)[C@H](O)[C@@H](O)C1(F)F [Compound 116, (2S,3R,4R,6R)-2-(4-chloro-5-{[4-(fluoromethoxy)phenyl]methyl}-2-hydroxyphenyl)-5,5-difluoro-6-(hydroxymethyl)oxane-3,4-diol] | 
14 | 83 | 53 | 82.4 | 1.5 |  |  | CCc1cc(O)c([C@@H]2O[C@H](CO)C(F)(F)[C@H](O)[C@H]2O)cc1Cc1ccc(OCF)cc1 [Compound 148] | 
15 |  |  |  |  | 16.4 | 87.1 | CCc1ccc(Cc2cc([C@@H]3O[C@H](CO)C(F)(F)[C@H](O)[C@H]3O)c(OC)cc2C)cc1 [Compound 129] | 
16 |  |  |  |  | 16.5 | 88.0 | CCc1ccc(Cc2cc([C@@H]3O[C@H](CO)C(F)(F)[C@H](O)[C@H]3O)c(OC)cc2Cl)cc1 [Compound 135] | 
17 |  |  |  |  | 38.9 | 91.8 | OC[C@H]1O[C@@H](c2cc(Cc3ccc(OC(F)(F)F)cc3)c(Cl)cc2O)[C@H](O)[C@@H](O)C1(F)F [Compound 105] | 
18 |  |  |  |  | 30.3 | 77.2 | COc1cc(C)c(Cc2ccc(OC(F)(F)F)cc2)cc1[C@@H]1O[C@H](CO)C(F)(F)[C@H](O)[C@H]1O [Compound 101] | 
19 |  |  |  |  | 21.6 | 60.1 | OC[C@H]1O[C@@H](c2cc(Cc3ccc4c(c3)OCCO4)c(Cl)c3c2CCO3)[C@H](O)[C@@H](O)C1(F)F [Compound 188] | 
20 |  |  |  |  | 20.2 | 63.6 | COc1cc(OC)c([C@@H]2O[C@H](CO)C(F)(F)[C@H](O)[C@H]2O)cc1Cc1ccc(OC(F)(F)F)cc1 [Compound 121] | 
21 | 75 | 95 | 82.4 | 5.7 |  |  | Cc1cc(O)c([C@@H]2O[C@H](CO)C(F)(F)[C@H](O)[C@H]2O)cc1Cc1ccc(Cl)s1 [Compound 110] | 
22 | 56.5 | 127 | 73 | 1.5 |  |  | CCOc1ccc(Cc2cc([C@@H]3O[C@H](CO)C(F)(F)[C@H](O)[C@H]3O)c(O)cc2Cl)cc1 [Compound 162] | 
23 | 52.1 | 644 | 88 | 6.2 |  |  | CCc1cc(OC)c([C@@H]2O[C@H](CO)C(F)(F)[C@H](O)[C@H]2O)cc1Cc1ccc(C2CC2)cc1 [Compound 151] | 
24 |  |  |  |  | 41.9 | 76.8 | OC[C@H]1O[C@@H](c2cc3c(c(Cc4ccc(OCF)cc4)c2)OCC3)[C@H](O)[C@@H](O)C1(F)F [Compound 146] | 
25 |  |  |  |  | 30.2 | 81.9 | COc1ccc(Cc2cc([C@@H]3O[C@H](CO)C(F)(F)[C@H](O)[C@H]3O)c(OC)cc2OC)cc1 [Compound 92] | 
26 | 48.7 | 591 | 88.1 | 6.7 |  |  | CCc1ccc(Cc2cc([C@@H]3O[C@H](CO)C(F)(F)[C@H](O)[C@H]3O)c(OC)cc2OC)cc1 [Compound 153] | 
27 |  |  |  |  | 39.3 | 87.4 | COc1c([C@@H]2O[C@H](CO)C(F)(F)[C@H](O)[C@H]2O)cc(Cc2ccc(C3CC3)cc2)c2c1CCO2 [Compound 183] | 
